How the values were obtained:
[1] = ABTS radical scavenging assay; type: biochemical; settings: supplement tables; for ABTS, mean±SD: n = 3
Experimental: The ABTS radical scavenging activity of the sample was measured using a method adapted from Mirzaei et al.. The ABTS radical was generated by mixing 7 mM ABTS with 2.45 mM potassium persulfate in a 1:1 ratio and incubating the mixture in the dark at room temperature for 12 to 16 h. The resulting solution was then diluted to achieve an absorbance of 0.74 ± 0.03 at 734 nm, using deionized water for adjustments. Next, 10 μL of the sample was added to 190 μL of the ABTS solution. The mixture was incubated in the dark for 7 min, after which the absorbance was measured at 734 nm. The ABTS radical scavenging activity (%) was calculated using the following equation (2):
ABTSradicalscavengingactivity%=Acontrol–Asample/Acontrol×100 (2)
In this equation, Acontrol refers to the absorbance of the control solution (which contains all reagents except the test samples), while Asample refers to the absorbance of the mixture containing the sample and the ABTS solution. To determine the Trolox equivalent antioxidant capacity (TEAC), a Trolox standard curve was used, and the results were expressed as millimoles of Trolox equivalents per milligram of protein (mM TE/mg protein).

[2] = DPPH radical scavenging assay; type: biochemical; settings: supplement tables; for DPPH, mean±SD: n = 3
Experimental: The DPPH radical scavenging activity of the sample was assessed following a modified protocol based on a previous study. In each well of a 96-well plate, 10 μL of the sample was added, followed by 190 μL of 0.1 mM DPPH solution in 70% ethanol. The mixture was then incubated at room temperature in the dark for 30 min. After the incubation period, the absorbance of the mixture was measured at 517 nm. The DPPH radical scavenging activity was calculated using the following equation (1):
DPPHradicalscavengingactivity%=Acontrol–Asample/Acontrol×100 (1)
In this equation, Acontrol represents the absorbance of a control solution containing all reagents except for the test samples, while Asample is the absorbance of the mixture (the sample combined with 0.1 mM DPPH). To determine the Trolox equivalent antioxidant capacity (TEAC), a Trolox standard curve was utilized. The results were expressed as millimoles of Trolox equivalents per milligram of protein (mM TE/mg protein).

RAW 264.7 [3] = test: Anti-inflammation assay: released NO in LPS-stimulated RAW 264.7 (Griess); type: cell-based, Murine; settings: then 1 µg/mL LPS 24 h; for Released NO: peptide 10 µg/mL 1 h; for Released NO, mean±SD: peptide 10 µg/mL pre-treatment 1 h, Griess reagent, n = 3
Experimental: (§1) Murine macrophage cells (RAW 264.7; ATCC TIB-71™) were cultured in Dulbecco’s Modified Eagle’s Medium (DMEM) that was supplemented with 10% heat-inactivated fetal bovine serum (FBS) and 1% antibiotic solution. Colorectal adenocarcinoma cells (CaCo-2; ATCC HTB 37™) were cultured in Eagle’s Minimum Essential Medium (EMEM), also supplemented with 10% heat-inactivated FBS and 1% antibiotic solution. Both cell types were maintained in a humidified incubator with 5% CO2. The cell culture medium was refreshed every three days.
The anti-inflammation assay was conducted following the method described by Barzkar et al. with slight modifications. RAW 264.7 (1 x 10^5 cells) was seeded into a 96-well plate to allow for cell attachment. After 24 h, the cells were pre-treated with fresh medium containing peptide samples at a concentration of 10 µg/mL for 1 h. Subsequently, the treated cells were stimulated with 1 µg/mL lipopolysaccharide (LPS) for an additional 24 h. Unstimulated cells were included as a negative control. At the end of the treatment period, the conditioned medium was collected for the determination of released nitric oxide (NO). Griess’s reagent (Promega) was utilized to measure the NO concentration, following the manufacturer’s instructions. A NO calibration curve was generated to quantify the released NO in the conditioned medium.

RAW 264.7 [4] = test: Cytotoxicity assessment (MTT); type: cell-based, Murine; settings: peptide 10 µg/mL, 72 h; for Cell viability, mean±SD: relative to untreated cells, n = 3, SD
Experimental: as §1
Cytotoxicity assessment was performed following the method described by Yang et al., with slight modifications. RAW 264.7 was seeded with 1 x 10^5 cells in a 96-well plate with an appropriate cell culture medium. After allowing the cells to attach, the medium was replaced with a fresh cell culture medium containing the peptide samples at a concentration of 10 µg/mL. The treated cells were incubated for an additional 72 h. At the designated time, fresh medium was added, which included 3-(4,5-dimethylthiazol-2-yl)-2,5-diphenyltetrazolium bromide (MTT) at a concentration of 0.5 mg/mL. After 3 h, formazan crystals were observed. The medium was then removed, and the crystals were dissolved in 100% dimethyl sulfoxide (DMSO). A microplate reader (Synergy HTX; Biotek, Multi-Mode Reader, Winooski, VT, USA) was utilized to measure the absorbance at 570 nm (measurement wavelength) and 630 nm (reference wavelength). The percentage of cell viability was calculated relative to untreated cells using the following equation (5):
Cellviability%=ODtreatment–ODblank/ODuntreated–ODblank×100 (5)
Where ODtreatment is the absorbance of the treated sample, ODuntreated is the absorbance of the untreated sample, and ODblank is the absorbance from wells without treated and untreated samples.

[5] = Ferric reducing antioxidant power (FRAP) assay; type: biochemical
Experimental: The FRAP assay was conducted following the method outlined by Rumpf et al.. The FRAP solution was prepared by mixing 300 mM acetate buffer (pH 3.6), 10 mM TPTZ (2,4,6-Tris(2-pyridyl)-s-triazine) in 40 mM hydrochloric acid, and 20 mM FeCl3 in a ratio of 10:1:1. In a 96-well plate, 10 μL of the sample was combined with 190 μL of the FRAP solution and incubated in the dark for 15 min. The absorbance of the mixture was then measured at 593 nm. FeSO4 was used to create the standard curve, and the results were expressed as millimoles of FeSO4 equivalent per milligram of protein (mM FeSO4/mg protein).

[6] = 10 µL sample + 190 µL FRAP solution, 15 min dark, 593 nm, FeSO4 standard curve, mean ± SD, n = 3, SD

Sequence | ABTS, mean±SD [1] | ABTS ([1]; replicate 1) [TE/mg protein] | ABTS ([1]; replicate 2) [TE/mg protein] | ABTS ([1]; replicate 3) [TE/mg protein] | DPPH, mean±SD [2] | DPPH ([2]; replicate 1) [TE/mg protein] | DPPH ([2]; replicate 2) [TE/mg protein] | DPPH ([2]; replicate 3) [TE/mg protein] | Released NO (RAW 264.7 [3]; replicate 1) [µM] | Released NO (RAW 264.7 [3]; replicate 2) [µM] | Released NO (RAW 264.7 [3]; replicate 3) [µM] | Released NO, mean±SD (RAW 264.7 [3]) | Cell viability, mean±SD (RAW 264.7 [4]) [%] | Cell viability (RAW 264.7 [4]; replicate 1) [%] | Cell viability (RAW 264.7 [4]; replicate 2) [%] | Cell viability (RAW 264.7 [4]; replicate 3) [%] | FRAP [5, 6] | FRAP ([5]; supplement tables, replicate 1) [mM FeSO4/mg protein] | FRAP ([5]; supplement tables, replicate 2) [mM FeSO4/mg protein] | FRAP ([5]; supplement tables, replicate 3) [mM FeSO4/mg protein]
DAENKENVEE [P18, synthesized peptide identified from jellyfish fraction PUR20C] | 6.05 TE/mg protein | 5.71 | 5.51 | 6.91 | 6.03±0.79^D TE/mg protein | 5.23 | 6.03 | 6.82 | 34.13 | 31.37 | 31.03 | 32.18±1.70^F µM | 89.16 | 86.29 | 87.17 | 94.02 | 4.40±0.43^H mM FeSO4/mg protein | 4.89 | 4.05 | 4.26
EIDKLPPESRP [P7, synthesized peptide identified from jellyfish fraction PUR20C] | 1.64 TE/mg protein | 1.71 | 1.71 | 1.50 | 1.96 TE/mg protein | 1.52 | 1.78 | 2.58 | 35.51 | 37.58 | 33.79 | 35.63 ± 1.89 µM | 81.60 | 81.72 | 81.89 | 81.19 | 12.40±1.36^C mM FeSO4/mg protein | 11.00 | 13.73 | 12.47
EQIYPMGEGDEL [P4, synthesized peptide identified from jellyfish fraction PUR20C] | 103.41±1.20^F TE/mg protein | 103.28 | 102.27 | 104.68 | 3.81±0.30^E TE/mg protein | 3.64 | 3.64 | 4.17 | 38.96 | 35.86 | 36.55 | 37.12 µM | 82.77±0.92 | 83.12 | 83.47 | 81.72 | 8.40 mM FeSO4/mg protein | 8.89 | 8.47 | 7.84
GKNCGETVWE [P9, synthesized peptide identified from jellyfish fraction PUR20C] | 103.21±2.27^F TE/mg protein | 105.08 | 100.67 | 103.88 | 40.86±0.85^C TE/mg protein | 40.24 | 41.83 | 40.51 | 35.86 | 36.20 | 34.82 | 35.63 ± 0.71 µM | 87.34 | 87.34 | 86.26 | 88.40 | 13.03±0.8^C mM FeSO4/mg protein | 13.31 | 13.73 | 12.05
HSVLTASYRN [P5, synthesized peptide identified from jellyfish fraction PUR20C] | 123.24±0.75^C TE/mg protein | 124.11 | 122.71 | 122.91 | 3.20 TE/mg protein | 2.84 | 3.11 | 3.64 | 34.13 | 33.44 | 36.20 | 34.59 ± 1.43 µM | 87.58 | 92.44 | 89.27 | 81.01 | 8.19 mM FeSO4/mg protein | 7.63 | 9.52 | 7.42

Reference: paper PMC11813147, “Bioactivity assessment of peptides derived from salted jellyfish (Rhopilema hispidum) byproducts” (PLOS ONE, 2025)
